{"source": "patent US20200131161A1", "about": "“NOVEL POCHONIOLIDE COMPOUND AND USE THEREOF” (THE KITASATO INSTITUTE, priority 2017, published 2020)", "key": {"[1]": {"assay": "Acrylamide produced by Maillard reaction using a mixture of asparagine and glucose (Morinaga acrylamide EIA kit)", "settings": "compound at 6 mg/ml final concentration; heated in autoclave 121° C. 20 minutes; untreated sample 51 ng/ml", "procedure": "An aqueous solution (0.25 ml) of 100 mg/ml glucose (Wako Pure Chemical Corporation) treated with Chelex 100 (Bio-Rad Laboratories, Inc.) and an aqueous solution (0.5 ml) of 50 mg/ml asparagine (Wako Pure Chemical Corporation) treated with Chelex 100 (Bio-Rad Laboratories, Inc.) were introduced into a 1.5-ml microtube. Pochoniolides A, B, and C dissolved in methanol to a fmal concentration of 6 mg/ml and dihydroquercetin (final concentration 10% methanol) as a positive control were added, and the total amount of the solution was adjusted to 1.0 ml with the addition of distilled water. After the resultant was heated in an autoclave at 121° C. for 20 minutes, the amount of acrylamide produced was measured with the use of Morinaga acrylamide EIA kit (Morinaga Institute of Biological Science, Inc.) in accordance with the protocols."}, "[2]": {"assay": "Effects for decreasing acrylamide in model food (french fries)", "settings": "test compound at final concentration of 1% applied to formed potatoes, fried in oil at 170 to 200 degrees for 1 minute; for concentration of acrylamide produced: control 7 ppm", "procedure": "Pochoniolides B and C were evaluated in terms of effects of decreasing acrylamide in a model food (french fries) using dihydroquercetin as a positive control. Commercially available frozen french fries (raw) were thawed and a portion of 10 g was separated. The portion of 10 g was ground in a mortar and formed into individual homogeneous portions of 1 g each, followed by forming. The test compounds were dissolved in a small amount of ethanol to a final concentration of 1%. The ethanol solution was homogeneously applied to the formed potatoes. The potatoes were fried in oil at 170 to 200 degrees for 1 minute, and measurement of the acrylamide concentration was requested to Morinaga Institute of Biological Science, Inc. The results are shown in FIG. 7. While the concentration of acrylamide produced was 7 ppm with the addition of control sample, the concentration of acrylamide produced was 4 ppm with the addition of dihydroquercetin as a positive control. No effects of pochoniolide B for decreasing the amount of acrylamide production were observed. The concentration of acrylamide produced was 2 ppm in the group to which pochoniolide C was added."}, "[3]": {"assay": "Solubility (physicochemical properties)", "settings": "DMSO, acetone, water, methanol"}, "[4]": {"test_system": "Bacillus subtilis ATCC 6633, Micrococcus luteus ATCC 9341, Escherichia coli NIHJKB213, Xanthomonas campestris pv. oryzae KB 88, Candida albicans KF1, Mucor …", "assay_type": "cell-based"}, "[5]": {"test_system": "HeLaS3 cells, A549 cells, H1299 cells, HT29 cells, Pancl cells, Jurkat cells, HL60 cells, THP-1 cells", "assay": "Cytotoxicity test in vitro, cell viability by WST-8", "assay_type": "cell-based", "settings": "at 100 μM, all eight human cell lines, culture for 2 days", "procedure": "Cytotoxicity of the pochoniolides of the present invention on various cells was tested. Human cervical cancer-derived HeLaS3 cells, human lung cancer-derived A549 cells, human lung cancer-derived H1299 cells (not expressing p53), human colon adenocarcinoma HT29 cells, human pancreatic cancer […], human acute T cell leukemia-derived Jurkat cells, human promyelocyte leukemia HL60 cells, and human acute monocytic leukemia THP-1 cells were subjected to evaluation of cytotoxicity by measuring cell viability using WST-8 (Dojindo Laboratories). The cells that had reached 80% confluence were counted using a hemocytometer, and a cell suspension was prepared. The cell suspension was dispensed into each well of a 96-well microplate at 100 μl/well using multichannel pipettes. Only a medium was added to a blank (background) well in an amount of 100 μl. HeLaS3 cells, A549 cells, H1299 cells, HT29 cells, and […] cultured for 24 hours in a CO2-incubator, Jurkat cells, HL60 cells, and THP-1 cells were cultured for 1 to 2 hours in a CO2-incubator. Solutions of the compounds diluted 3-fold from 10 mM to 100 μM in methanol or dimethyl sulfoxide were prepared, and the resulting solutions were then added at 1 μl/well (final concentration: 100 μM to 1 μM). After culture was performed for 2 days, 10 μl of the WST-8 reagent was introduced into each well, culture was performed for 30 to 60 minutes, and the absorbance at 460 nm was measured. The cell viability was determined in accordance with the following equation. Cell viability (%)=[(As-Ab)/(Ac-Ab)]×100 • As: Absorbance of sample (a well containing cells, pochoniolide A, B, or C, and a WST-8 solution) • Ac: Absorbance of control (a well containing cells and a WST-8 solution without pochoniolide A, B, or C) • Ab: Absorbance of blank (a well containing a medium and a WST-8 solution without cells)"}}, "data": [{"compound": "O=C1c2c(O)cc(O)cc2O[C@H](c2ccc(O)c(O)c2)[C@H]1O", "note": "[dihydroquercetin, reference compound]", "values": [{"measurement": "amount of acrylamide produced", "setting": "[1]", "result": 28, "unit": "ng/mL"}, {"measurement": "concentration of acrylamide produced", "setting": "[2]", "result": 4, "unit": "ppm"}]}, {"compound": "O=C(O)CC1OC(=O)C=C1c1coc2cc(O)cc(O)c2c1=O", "note": "(stereo not shown) [pochoniolide A]", "values": [{"measurement": "Solubility", "setting": "[3]", "result": "easily soluble in DMSO and acetone, but hardly soluble in water and methanol"}, {"measurement": "antibacterial activity (growth-inhibiting circle)", "setting": "[4]", "result": "no antibacterial activity"}, {"measurement": "amount of acrylamide produced", "setting": "[1]", "result": 53, "unit": "ng/mL"}, {"measurement": "cytotoxicity (cell viability)", "setting": "[5]", "result": "no toxicity"}]}, {"compound": "O=C(O)CC1OC(=O)C=C1C1Oc2cc(O)cc(O)c2C(=O)C1O", "note": "(stereo not shown) [pochoniolide C]", "values": [{"measurement": "Solubility", "setting": "[3]", "result": "easily soluble in DMSO and acetone, but hardly soluble in water and methanol"}, {"measurement": "antibacterial activity (growth-inhibiting circle)", "setting": "[4]", "result": "no antibacterial activity"}, {"measurement": "amount of acrylamide produced", "setting": "[1]", "result": 18, "unit": "ng/mL"}, {"measurement": "concentration of acrylamide produced", "setting": "[2]", "result": 2, "unit": "ppm"}, {"measurement": "cytotoxicity (cell viability)", "setting": "[5]", "result": "no toxicity"}]}, {"compound": "pochoniolide B", "values": [{"measurement": "Solubility", "setting": "[3]", "result": "easily soluble in DMSO and acetone, but hardly soluble in water and methanol"}, {"measurement": "antibacterial activity (growth-inhibiting circle)", "setting": "[4]", "result": "no antibacterial activity"}, {"measurement": "amount of acrylamide produced", "setting": "[1]", "result": 9, "unit": "ng/mL"}, {"measurement": "effects for decreasing the amount of acrylamide production", "setting": "[2]", "result": "No effects"}, {"measurement": "cytotoxicity (cell viability)", "setting": "[5]", "result": "no toxicity"}]}]}
